Common to all, as to assay type: cell-based
In experiment [1] the test system is LFC rat hepatocarcinoma cells. Nature of the experiment: Inhibition of proliferation of LFC hepatocarcinoma cells, tritiated thymidine incorporation. The conditions noted are these: concentrations of 0.1% and 1% by weight. Here is the method: LFC rat hepatocarcinoma cells (VPR42, Villejuif) are cultured at the rate of 10^4 or 5×10^4 cells in a well containing 200 μl of culture medium.
Inhibition of cell proliferation is assessed using tritiated thymidine as described in Test 1. The assessment is made in comparison with the reference product, which is verapamil.

In experiment [2] the test system is BON human pancreatic carcinoid cell lines. Nature of the experiment: Inhibition of growth of BON pancreatic carcinoid cells, MUH fluorescence. The note with it: 192 h, read-out: ED50 (inhibition of cell growth). Here is the method: The BON human pancreatic carcinoid cell lines are cultured in a DMEM/F12K (1/1) medium to which 10% FCS is added.
The test system of experiment [3] is STC-1 mouse intestinal cancer cell lines. Nature of the experiment: Growth of STC-1 carcinoid intestinal cells, cell counting or MUH fluorescence. The conditions noted are these: STC-1, read-out: ED50 (cell growth). The procedure:
The STC-1 mouse intestinal cancer cell lines are cultured in a DMEM medium which contains 15% horse serum and 2.5% FCS. The products to be studied are added to the culture and cell growth is assessed by counting cells or, more frequently, by a fluorescence technique which is based on the cellular enzymic hydrolysis of the fluorogenic substrate 4-methylumbelliferyl heptanoate (MUH); thus, viable cells which are incubated with MUH generate a fluorescent signal which is proportional to their number and which is determined using a “Titentec Fluoroscan II” (Flow Laboratory), with the value being given in arbitrary fluorescence units.

In experiment [4] the test system is HT29 colon cancer cell line. Nature of the experiment: Inhibition of proliferation of HT29 colon cancer cells, tritiated thymidine incorporation. The note with it: Homo sapiens, HT-29, 15 h, read-out: % Inhibition of cell proliferation (3HThdR incorporation). The procedure:
The HT29 colon cancer cell line employed (originally isolated from an adenocarcinoma of the human colon) was obtained from the ATCC (American Type Culture Collection).
The cells are cultured at the rate of 10^4 or 5×10^4 cells in a well containing 200 μl of culture medium composed of RPMI […] supplemented with 10% fetal calf serum, 2 mM of L-glutamine and 25 μM gentamicin.

As for `COc1ccc(CCN(C)CCCC(C#N)(c2ccc(OC)c(OC)c2)C(C)C)cc1OC` (stereo not drawn) [verapamil], the “percentage inhibition of proliferation” value in experiment [1] was 72%. The EC50 in experiment [2] is 43.6 µM. Moreover, in experiment [3], the EC50 came out at 13 µM. In addition, in experiment [4], the inhibition at 0.025 % strength stood at 17%, the inhibition at 0.05 % strength was found to be 17% and the inhibition at 0.1 % strength is 27%.

Source of the values: patent US6500826B1, “Use of panaverium bromide for preventing cell proliferation and diseases caused thereby in the liver and digestive tract” (Solvay Pharma, priority 1996, dated 2002).
